Results on 20 compounds are retold here after BindingDB's records for doi:10.1016/0960-894X(95)00509-R (1995).

This assay has as its target Platelet-activating factor receptor (Oryctolagus cuniculus). Nature of the assay: Tested in vitro for antagonistic activity to displace [3H]PAF from rabbit platelet membrane PAF receptors.
`Cn1cc(C(=O)c2ccn3c2CSC3c2cccnc2)c2ccc(-c3ccc(F)cc3)cc21` (stereo not given) [[6-(4-Fluoro-phenyl)-1-methyl-1H-indol-3-yl]-(3-pyridin-3-yl-1H-pyrrolo[1,2-c]thiazol-7-yl)-methanone] registered a Ki of 7 nM.

Compound `O=C(c1ccn2c1CSC2c1cccnc1)c1cn(C(=O)N2CCOCC2)c2ccccc12` (stereo not given) [Morpholin-4-yl-[3-(3-pyridin-3-yl-1H-pyrrolo[1,2-c]thiazole-7-carbonyl)-indol-1-yl]-methanone] showed a Ki of 225 nM.

On to `O=C(c1ccn2c1CSC2c1cccnc1)c1c[nH]c2cc(-c3ccc(F)cc3)ccc12` (stereo not given) [[6-(4-Fluoro-phenyl)-1H-indol-3-yl]-(3-pyridin-3-yl-1H-pyrrolo[1,2-c]thiazol-7-yl)-methanone], for which the Ki is 75 nM.

Consider `CN(C)C(=O)n1cc(C(=O)c2ccn3c2CSC3c2cccnc2)c2ccc(-c3ccccc3)cc21` (stereo not given) [6-Phenyl-3-(3-pyridin-3-yl-1H-pyrrolo[1,2-c]thiazole-7-carbonyl)-indole-1-carboxylic acid dimethylamide], for which the affinity corresponds to a Ki of 23 nM.

`NC(=O)n1cc(C(=O)c2ccn3c2CSC3c2cccnc2)c2ccc(-c3ccc(F)cc3)cc21` (stereo not given) [6-(4-Fluoro-phenyl)-3-(3-pyridin-3-yl-1H-pyrrolo[1,2-c]thiazole-7-carbonyl)-indole-1-carboxylic acid amide] showed a Ki of 6 nM.

Regarding `CN(C)C(=O)n1cc(C(=O)c2ccn3c2CSC3c2cccnc2)c2ccc(Oc3ccc(F)cc3)cc21` (stereo not given) [6-(4-Fluoro-phenoxy)-3-(3-pyridin-3-yl-1H-pyrrolo[1,2-c]thiazole-7-carbonyl)-indole-1-carboxylic acid dimethylamide], the Ki was 1.7 nM.

Compound `O=C(c1ccn2c1CSC2c1cccnc1)c1c[nH]c2cccc(O)c12` (stereo not given) [(4-Hydroxy-1H-indol-3-yl)-(3-pyridin-3-yl-1H-pyrrolo[1,2-c]thiazol-7-yl)-methanone] returned a Ki of 327 nM.

Take `CN(C)C(=O)n1cc(C(=O)c2ccn3c2CSC3c2cccnc2)c2ccc(OCc3ccccc3)cc21` (stereo not given) [6-Benzyloxy-3-(3-pyridin-3-yl-1H-pyrrolo[1,2-c]thiazole-7-carbonyl)-indole-1-carboxylic acid dimethylamide]: the Ki was determined as 17 nM.

In the case of `CCNC(=O)n1cc(C(=O)c2ccn3c2CSC3c2cccnc2)c2ccc(-c3ccc(F)cc3)cc21` (stereo not given) [6-(4-Fluoro-phenyl)-3-(3-pyridin-3-yl-1H-pyrrolo[1,2-c]thiazole-7-carbonyl)-indole-1-carboxylic acid ethylamide], the Ki is 19 nM.

`CN(C)C(=O)n1cc(C(=O)c2ccn3c2CSC3c2cccnc2)c2ccccc21` (stereo not given) [3-(3-Pyridin-3-yl-1H-pyrrolo[1,2-c]thiazole-7-carbonyl)-indole-1-carboxylic acid dimethylamide]: affinity was put at a Ki of 95 nM.

`NNC(=O)n1cc(C(=O)c2ccn3c2CSC3c2cccnc2)c2ccc(-c3ccc(F)cc3)cc21` (stereo not given) [6-(4-Fluoro-phenyl)-3-(3-pyridin-3-yl-1H-pyrrolo[1,2-c]thiazole-7-carbonyl)-indole-1-carboxylic acid hydrazide] gave a Ki of 25 nM.

Turning to `CN(C)C(=O)Cn1cc(C(=O)c2ccn3c2CSC3c2cccnc2)c2ccc(-c3ccc(F)cc3)cc21` (stereo not given) [2-[6-(4-Fluoro-phenyl)-3-(3-pyridin-3-yl-1H-pyrrolo[1,2-c]thiazole-7-carbonyl)-indol-1-yl]-N,N-dimethyl-acetamide], the affinity corresponds to a Ki of 0.7 nM.

Compound `CC(C)(C)OC(=O)n1cc(C(=O)c2ccn3c2CSC3c2cccnc2)c2ccccc21` (stereo not given) [3-(3-Pyridin-3-yl-1H-pyrrolo[1,2-c]thiazole-7-carbonyl)-indole-1-carboxylic acid tert-butyl ester] yielded a Ki of 110 nM.

Compound `CN(C)C(=O)n1cc(C(=O)c2ccn3c2CSC3c2cccnc2)c2ccc(Cl)cc21` (stereo not given) [6-Chloro-3-(3-pyridin-3-yl-1H-pyrrolo[1,2-c]thiazole-7-carbonyl)-indole-1-carboxylic acid dimethylamide] gave a Ki of 89 nM.

Take `O=C(c1ccn2c1CSC2c1cccnc1)c1c[nH]c2c(OCc3ccccc3)cccc12` (stereo not given) [(7-Benzyloxy-1H-indol-3-yl)-(3-pyridin-3-yl-1H-pyrrolo[1,2-c]thiazol-7-yl)-methanone]: the affinity, expressed as Ki, was 90 nM.

In turn, `CN(C)C(=O)n1cc(C(=O)c2ccn3c2CSC3c2cccnc2)c2cc(OCc3ccccc3)ccc21` (stereo not given) [5-Benzyloxy-3-(3-pyridin-3-yl-1H-pyrrolo[1,2-c]thiazole-7-carbonyl)-indole-1-carboxylic acid dimethylamide] returned a Ki of 120 nM.

In turn, `CN(C)C(=O)n1cc(C(=O)c2ccn3c2CSC3c2cccnc2)c2ccc(Sc3ccc(F)cc3)cc21` (stereo not given) [6-(4-Fluoro-phenylsulfanyl)-3-(3-pyridin-3-yl-1H-pyrrolo[1,2-c]thiazole-7-carbonyl)-indole-1-carboxylic acid dimethylamide] gave a Ki of 17 nM.

`O=C(c1ccn2c1CSC2c1cccnc1)c1c[nH]c2ccc(OCc3ccccc3)cc12` (stereo not given) [(5-Benzyloxy-1H-indol-3-yl)-(3-pyridin-3-yl-1H-pyrrolo[1,2-c]thiazol-7-yl)-methanone] registered a Ki of 180 nM.

On to `O=C(c1ccn2c1CSC2c1cccnc1)c1c[nH]c2cc(OCc3ccccc3)ccc12` (stereo not given) [(6-Benzyloxy-1H-indol-3-yl)-(3-pyridin-3-yl-1H-pyrrolo[1,2-c]thiazol-7-yl)-methanone], for which the affinity corresponds to a Ki of 64 nM.

In turn, `CN(C)C(=O)n1cc(C(=O)c2ccn3c2CSC3c2cccnc2)c2ccc(Cc3ccccc3)cc21` (stereo not given) [6-Benzyl-3-(3-pyridin-3-yl-1H-pyrrolo[1,2-c]thiazole-7-carbonyl)-indole-1-carboxylic acid dimethylamide] returned a Ki of 13 nM.

What is called Ki is a measure of affinity in units of concentration, obtained from inhibition or displacement. A high value points to lower affinity.
